These are literature values, as cited in patent US6706892B1, “Pulmonary delivery for bioconjugation” (priority 1999, dated 2004).

Data set [1] relates to breast cancer. As to conditions: in vivo.
The conditions of data set [2]: in vivo.

Structures are written as SMILES.

`O=C(c1ccc(OCCN2CCCCC2)cc1)c1c(-c2ccc(O)cc2)sc2cc(O)ccc12` [Raloxifene]: in data set [1], the “cut in the risk of breast cancer” value is ≤ 60%.
Consider `CC1=NS(=O)(=O)c2cc(Cl)ccc2N1` [Diazoxide], for which the half-life entry in data set [2] is on record as “about 24 hours”.
